Results taken from PubChem BioAssay AID248 (DTP/NCI, 2004).
“And” between values parts separate entries of the source, which are not always exact repeats. Equal entries are not always repeated. Toxic doses and inconclusive results are not listed.

System: L1210 leukemia ip in BDF1 mice, survival T/C
Assay: NCI In Vivo Anticancer Drug Screen. Data for tumor model L1210 Leukemia (intraperitoneal) in B6D2F1 (BDF1) mice
Details: endpoint: mean survival time, higher = longer survival
Method in brief: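 Survival endpoint. Drug-treated group vs vehicle group, expressed as T divided by C. Tumor passaged by transplantation.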

[1] = dose: 100.0 mg/kg/injection, schedule: Q01DX009 (ip), vehicle: saline with Tween-80
[2] = dose: 200.0 mg/kg/injection, schedule: Q01DX009 (ip), vehicle: saline with Tween-80
[3] = dose: 400.0 mg/kg/injection, schedule: Q01DX009 (ip), vehicle: saline with Tween-80
[4] = dose: 100.0 mg/kg/injection, schedule: Q01DX001 (ip), vehicle: carboxymethylcellulose (CMC)
[5] = dose: 200.0 mg/kg/injection, schedule: Q01DX001 (ip), vehicle: carboxymethylcellulose (CMC)
[6] = dose: 400.0 mg/kg/injection, schedule: Q01DX001 (ip), vehicle: carboxymethylcellulose (CMC)
[7] = dose: 25.0 mg/kg/injection, schedule: Q01DX001 (ip), vehicle: saline with Tween-80
[8] = dose: 25.0 mg/kg/injection, schedule: Q04DX003 (ip), vehicle: saline with Tween-80
[9] = dose: 100.0 mg/kg/injection, schedule: Q04DX003 (ip), vehicle: saline with Tween-80
[10] = dose: 200.0 mg/kg/injection, schedule: Q04DX003 (ip), vehicle: saline with Tween-80
[11] = dose: 400.0 mg/kg/injection, schedule: Q04DX003 (ip), vehicle: saline with Tween-80
[12] = dose: 100.0 mg/kg/injection, schedule: Q04DX003 (ip), vehicle: Klucel (hydroxypropylcellulose) (HPC)
[13] = dose: 200.0 mg/kg/injection, schedule: Q04DX003 (ip), vehicle: Klucel (hydroxypropylcellulose) (HPC)
[14] = dose: 100.0 mg/kg/injection, schedule: Q01DX009 (ip), vehicle: acetone
[15] = dose: 200.0 mg/kg/injection, schedule: Q01DX009 (ip), vehicle: acetone
[16] = dose: 100.0 mg/kg/injection, schedule: Q04DX002 (ip), vehicle: Klucel (hydroxypropylcellulose) (HPC)
[17] = dose: 200.0 mg/kg/injection, schedule: Q04DX002 (ip), vehicle: Klucel (hydroxypropylcellulose) (HPC)
[18] = dose: 400.0 mg/kg/injection, schedule: Q04DX002 (ip), vehicle: Klucel (hydroxypropylcellulose) (HPC)
[19] = dose: 50.0 mg/kg/injection, schedule: Q01DX001 (ip), vehicle: saline
[20] = dose: 100.0 mg/kg/injection, schedule: Q01DX001 (ip), vehicle: saline
[21] = dose: 200.0 mg/kg/injection, schedule: Q01DX001 (ip), vehicle: saline
[22] = dose: 400.0 mg/kg/injection, schedule: Q01DX001 (ip), vehicle: saline

## CN=C(N)c1ccc(N=C(N)c2ccc(N=C(N)c3ccc(NC(=O)Nc4cccc(NC(=O)Nc5ccc(C(N)=Nc6ccc(C(N)=Nc7ccc(C(N)=NC)cc7)cc6)cc5)c4)cc3)cc2)cc1
dose: 0.25 mg/kg/injection, schedule: Q01DX015 (ip), vehicle: water
  T/C: 109 % of control
dose: 0.5 mg/kg/injection, schedule: Q01DX015 (ip), vehicle: water
  T/C: 113 % of control
dose: 1.0 mg/kg/injection, schedule: Q01DX015 (ip), vehicle: water
  T/C: 121 % of control
dose: 2.0 mg/kg/injection, schedule: Q01DX015 (ip), vehicle: water
  T/C: 124 % of control
dose: 37.5 mg/kg/injection, schedule: Q01DX001 (ip), vehicle: water
  T/C: 177 % of control and 178 % of control and 187 % of control
dose: 75.0 mg/kg/injection, schedule: Q01DX001 (ip), vehicle: water
  T/C: 265 % of control and 278 % of control and 310 % of control

## C1=CCC(OC2CCCCO2)=CC1 (configuration not stated)
[1]
  T/C: 96 % of control
[2]
  T/C: 94 % of control
[3]
  T/C: 87 % of control

## CCN(CC)C(=O)CCc1ccccc1
[1]
  T/C: 108 % of control
[2]
  T/C: 100 % of control

## O=C1c2ccccc2-c2ccc(N=C(NO)C(F)(F)F)cc21
[4]
  T/C: 118 % of control
[5]
  T/C: 98 % of control
[6]
  T/C: 98 % of control

## CCN(CC)CCN1C(=O)[C@H]2CC=CC[C@H]2C1=O
dose: 44.0 mg/kg/injection, schedule: Q01DX Z (ip), vehicle: saline
  T/C: 111 % of control
dose: 66.0 mg/kg/injection, schedule: Q01DX Z (ip), vehicle: saline
  T/C: 100 % of control
dose: 100.0 mg/kg/injection, schedule: Q01DX Z (ip), vehicle: saline
  T/C: 98 % of control

## CCOC(=O)c1cccc([N+](=O)[O-])c1I
dose: 100.0 mg/kg/injection, schedule: Q04DX003 (ip), vehicle: saline
  T/C: 93 % of control
dose: 200.0 mg/kg/injection, schedule: Q04DX003 (ip), vehicle: saline
  T/C: 95 % of control
dose: 400.0 mg/kg/injection, schedule: Q04DX003 (ip), vehicle: saline
  T/C: 96 % of control

## ClCC1=Nc2c(Cl)ncnc2NN1
dose: 6.25 mg/kg/injection, schedule: Q04DX003 (ip), vehicle: saline with Tween-80
  T/C: 94 % of control
dose: 12.5 mg/kg/injection, schedule: Q04DX003 (ip), vehicle: saline with Tween-80
  T/C: 96 % of control
[7]
  T/C: 95 % of control
[8]
  T/C: 91 % of control

## C=C(C(=O)c1ccccc1)C(O)c1ccccc1 (configuration not stated)
[1]
  T/C: 104 % of control
[9]
  T/C: 100 % of control
[2]
  T/C: 90 % of control
[10]
  T/C: 100 % of control
[11]
  T/C: 97 % of control

## CCCCNC(=O)CC(C)C(=O)O (configuration not stated)
[1]
  T/C: 100 % of control
[2]
  T/C: 98 % of control
[3]
  T/C: 100 % of control

## CCOC(=O)c1ccc(NC(=O)CS)cc1
[9]
  T/C: 89 % of control
[10]
  T/C: 94 % of control
[11]
  T/C: 97 % of control

## Cc1c(C(=O)CCl)c(=O)n(-c2ccccc2)n1C
dose: 50.0 mg/kg/injection, schedule: Q01DX009 (ip), vehicle: Klucel (hydroxypropylcellulose) (HPC)
  T/C: 100 % of control
dose: 100.0 mg/kg/injection, schedule: Q01DX009 (ip), vehicle: Klucel (hydroxypropylcellulose) (HPC)
  T/C: 100 % of control
[12]
  T/C: 95 % of control
[13]
  T/C: 101 % of control

## COc1ccc(/C=N/n2c(=O)[nH]nc(C)c2=O)c(OC)c1OC
[14]
  T/C: 96 % of control
[9]
  T/C: 112 % of control
[15]
  T/C: 93 % of control
[10]
  T/C: 117 % of control
dose: 400.0 mg/kg/injection, schedule: Q01DX009 (ip), vehicle: acetone
  T/C: 102 % of control
[11]
  T/C: 109 % of control

## N#Cc1ccc(OCc2nc(N)nc(N)c2-c2ccc(Cl)cc2)cc1
[9]
  T/C: 104 % of control
[10]
  T/C: 100 % of control

## Nc1ccc(C(=O)N/N=C/c2ccccc2[N+](=O)[O-])cc1
dose: 12.5 mg/kg/injection, schedule: Q01DX009 (ip), vehicle: other
  T/C: 91 % of control
dose: 25.0 mg/kg/injection, schedule: Q01DX009 (ip), vehicle: other
  T/C: 93 % of control

## Cc1cc(OC(=O)Nc2c(C)cccc2C)cc(C)c1Cl
[7]
  T/C: 93 % of control
dose: 25.0 mg/kg/injection, schedule: Q01DX009 (ip), vehicle: saline with Tween-80
  T/C: 111 % of control and 89 % of control
[8]
  T/C: 107 % of control
dose: 50.0 mg/kg/injection, schedule: Q01DX001 (ip), vehicle: saline with Tween-80
  T/C: 88 % of control
dose: 50.0 mg/kg/injection, schedule: Q01DX009 (ip), vehicle: saline with Tween-80
  T/C: 100 % of control and 114 % of control
dose: 50.0 mg/kg/injection, schedule: Q04DX002 (ip), vehicle: saline with Tween-80
  T/C: 94 % of control and 102 % of control
dose: 50.0 mg/kg/injection, schedule: Q04DX003 (ip), vehicle: saline with Tween-80
  T/C: 93 % of control
[9]
  T/C: 91 % of control
[2]
  T/C: 93 % of control
[10]
  T/C: 92 % of control
[3]
  T/C: 93 % of control
[11]
  T/C: 103 % of control

## O=c1[nH]c2c(c(=O)[nH]1)CCCCC2
[16]
  T/C: 95 % of control
[17]
  T/C: 89 % of control
[18]
  T/C: 92 % of control

## C(=N\Nc1nnc(N/N=C/c2cccc3ccccc23)c2ccccc12)/c1cccc2ccccc12
[19]
  T/C: 92 % of control
[20]
  T/C: 92 % of control
[21]
  T/C: 92 % of control
[22]
  T/C: 92 % of control

## CCOC(=O)/C(C#N)=C\c1ccc(N(C)C)cc1
dose: 100.0 mg/kg/injection, schedule: Q01DX Z (ip), vehicle: methylcellulose (MC)
  T/C: 106 % of control
dose: 200.0 mg/kg/injection, schedule: Q01DX Z (ip), vehicle: methylcellulose (MC)
  T/C: 108 % of control

## CCOC(=O)CCC(NC(=O)c1ccc(NCc2nnc3nc(N)nc(SCc4ccccc4)c3n2)cc1)C(=O)OCC (configuration not stated)
dose: 100.0 mg/kg/injection, schedule: Q01DX001 (ip), vehicle: saline with Tween-80
  T/C: 103 % of control
dose: 200.0 mg/kg/injection, schedule: Q01DX001 (ip), vehicle: saline with Tween-80
  T/C: 100 % of control
dose: 400.0 mg/kg/injection, schedule: Q01DX001 (ip), vehicle: saline with Tween-80
  T/C: 105 % of control

## CC(C)C1OCCO1
dose: 50.0 mg/kg/injection, schedule: Q01DX009 (ip), vehicle: acetone
  T/C: 92 % of control
[14]
  T/C: 101 % of control
[15]
  T/C: 95 % of control

## Nc1cc2c(cc1Br)-c1ccc([N+](=O)[O-])cc1/C2=N\O
[4]
  T/C: 113 % of control
[5]
  T/C: 103 % of control
[6]
  T/C: 97 % of control

## CCOc1nc(OCC)c2[nH]c(C(=O)O)c(Br)c2n1
[19]
  T/C: 107 % of control
[20]
  T/C: 100 % of control
[21]
  T/C: 105 % of control
[22]
  T/C: 107 % of control

## O=C(O)c1ccc([N+](=O)[O-])cc1C(=O)O
dose: 87.5 mg/kg/injection, schedule: Q01DX001 (ip), vehicle: saline
  T/C: 104 % of control
dose: 100.0 mg/kg/injection, schedule: Q01DX009 (ip), vehicle: saline
  T/C: 100 % of control
[12]
  T/C: 96 % of control
dose: 175.0 mg/kg/injection, schedule: Q01DX001 (ip), vehicle: saline
  T/C: 100 % of control
dose: 200.0 mg/kg/injection, schedule: Q01DX009 (ip), vehicle: saline
  T/C: 93 % of control
[13]
  T/C: 87 % of control
dose: 350.0 mg/kg/injection, schedule: Q01DX001 (ip), vehicle: saline
  T/C: 108 % of control

## Nc1n[nH]c(N)n1.[Ni]
[1]
  T/C: 101 % of control
[9]
  T/C: 113 % of control
[2]
  T/C: 111 % of control
[10]
  T/C: 103 % of control
[3]
  T/C: 104 % of control
[11]
  T/C: 98 % of control

## CC(C)CC(CC(C)C)NCC(C)OC(=O)C(c1ccccc1)c1ccccc1 (configuration not stated)
dose: 75.0 mg/kg/injection, schedule: Q01DX001 (ip), vehicle: saline
  T/C: 102 % of control
dose: 150.0 mg/kg/injection, schedule: Q01DX001 (ip), vehicle: saline
  T/C: 98 % of control
dose: 300.0 mg/kg/injection, schedule: Q01DX001 (ip), vehicle: saline
  T/C: 102 % of control

## CSc1ccc(NC(=O)C2CCCCC2C(=O)O)cc1 (configuration not stated)
[16]
  T/C: 92 % of control
[17]
  T/C: 111 % of control
[18]
  T/C: 96 % of control
